Values quoted from earlier work as cited in US9226893B2, “Method for storing silica-based material, package produced with the method and use of package for packaging of silica-based products” (DelSiTech Oy, priority 2006, dated 2016).

Substance: lysozyme: Lysozyme released from sol-gel derived silica gel (literature, Wilson et al.)
- activity of released lysozyme (gel let to dry and age simultaneously, within few weeks): substantially reduced
- amount of biologically active lysozyme relative to total amount of released lysozyme (silica gel which had not dried, with or without protective agent): ~100%
